Test results published in ChEMBL document CHEMBL1201862, “PubChem BioAssay data set” (2004).
Where a name gives a salt, the structure may show the parent alone.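 How tested: cells in 96-well plates exposed to compound for 48 hours at five concentrations. At the GI50, growth is halved.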 The source made the active and inactive calls. Rule as the data show it: active = GI50 up to about 1.1 µM and inactive = higher.

Columns and labels:
Experiment in all cases: NCI-60 cell line screen, 48 h
[1] = tested on: DU-145
[2] = tested on: LXFL 529
[3] = tested on: MDA-MB-231
[4] = tested on: MDA-MB-435
[5] = tested on: RXF 631
[6] = tested on: SR
[7] = tested on: T47D
[8] = tested on: 786-0
[9] = tested on: PC-3

Row | SMILES | GI50 [1] | GI50 [2] | GI50 [3] | GI50 [4] | GI50 [5] | GI50 [6] | GI50 [7] | GI50 [8] | GI50 [9]
1 | Nc1ccc2cc3ccc(N)cc3nc2c1 [PROFLAVINE SULFATE] | 2.21 µM (inactive) | 0.953 µM (active) | 1.62 µM (inactive) | 1.48 µM (inactive) | 1.12 µM (inactive) | 0.444 µM (active) | 1.59 µM (inactive) | – | –
2 | CC1CC2C3CC(F)C4=CC(=O)C=CC4(C)C3(F)C(O)CC2(C)C1(O)C(=O)COC(=O)C(C)(C)C (centres undefined) | – | – | – | – | – | > 100 µM (inactive) | – | 68.1 µM (inactive) | –
3 | O=C(O)CN1CCCC(Cc2c[nH]c3ccccc23)C1 (centres undefined) | > 100 µM (inactive) | – | > 100 µM (inactive) | > 100 µM (inactive) | – | – | – | – | > 100 µM (inactive)
4 | CC(=O)N/C(=C\c1ccc(/C=C(\NC(C)=O)C2=NC3C(=O)c4ccccc4C(=O)C3N2)cc1)C1=NC2C(=O)c3ccccc3C(=O)C2N1 (centres undefined) | – | 42.4 µM (inactive) | – | – | 19.7 µM (inactive) | – | – | – | –
5 | O=C(O)c1cccc2cccc(-c3c4ccc(=O)cc-4oc4cc(O)ccc34)c12 | > 100 µM (inactive) | – | 81.1 µM (inactive) | > 100 µM (inactive) | – | – | > 100 µM (inactive) | – | > 100 µM (inactive)
6 | O=C1c2ccccc2C(=O)c2c1ccc1c2N=C(c2ccc(F)cc2)CC(c2ccc(Cl)c(Cl)c2)N1 (centres undefined) | – | 16 µM (inactive) | – | – | – | 5.93 µM (inactive) | – | – | –
7 | NC(=O)Nc1cc(O)ccc1/N=N/c1ccc(S(=O)(=O)Nc2ccccn2)cc1 | – | > 100 µM (inactive) | – | – | – | – | – | – | –
8 | COc1ccc(N2C(=O)C3c4[nH]c5cc(C)ccc5c4C4CCC(C(C)(C)C)CC4C3C2=O)cc1 (centres undefined) | > 10 µM (inactive) | – | > 10 µM (inactive) | > 10 µM (inactive) | – | > 10 µM (inactive) | > 10 µM (inactive) | – | 5.24 µM (inactive)
